Measurements: ChEMBL document CHEMBL4507315 (2021)

Columns and labels:
[1] = target: 3-phosphoinositide-dependent protein kinase 1 (Homo sapiens) (UniProt O15530); conditions: Compound concentration 100.0 nM
[2] = target: Tyrosine-protein kinase BTK (Homo sapiens) (UniProt Q06187); conditions: Compound concentration 100.0 nM
[3] = target: Serine/threonine-protein kinase 38-like (Homo sapiens) (UniProt Q9Y2H1); conditions: Compound concentration 100.0 nM
[4] = target: Serine/threonine-protein kinase PLK4 (Homo sapiens) (UniProt O00444); conditions: Compound concentration 100.0 nM
[5] = target: Serine/threonine-protein kinase MARK1 (Homo sapiens) (UniProt Q9P0L2); conditions: Compound concentration 100.0 nM
[6] = target: Death-associated protein kinase 3 (Homo sapiens) (UniProt O43293); conditions: Compound concentration 100.0 nM
Sequence of Death-associated protein kinase 3 (Homo sapiens) (O43293 whole entry, looked up): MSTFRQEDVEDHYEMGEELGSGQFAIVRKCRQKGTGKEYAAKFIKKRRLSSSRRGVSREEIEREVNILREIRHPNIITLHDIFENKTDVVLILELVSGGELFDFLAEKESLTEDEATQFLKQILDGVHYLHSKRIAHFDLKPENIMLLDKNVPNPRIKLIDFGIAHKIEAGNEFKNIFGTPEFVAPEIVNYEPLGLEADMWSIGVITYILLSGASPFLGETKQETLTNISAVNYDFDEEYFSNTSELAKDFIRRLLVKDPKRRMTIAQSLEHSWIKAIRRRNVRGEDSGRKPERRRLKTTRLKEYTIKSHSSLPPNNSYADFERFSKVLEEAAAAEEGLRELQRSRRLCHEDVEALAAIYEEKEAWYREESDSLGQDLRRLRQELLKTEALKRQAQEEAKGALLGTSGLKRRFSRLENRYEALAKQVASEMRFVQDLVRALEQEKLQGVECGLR

[7] = target: Dual specificity testis-specific protein kinase 1 (Homo sapiens) (UniProt Q15569); conditions: Compound concentration 100.0 nM
[8] = target: Dual specificity tyrosine-phosphorylation-regulated kinase 1B (Homo sapiens) (UniProt Q9Y463); conditions: Compound concentration 100.0 nM
[9] = target: Dual specificity mitogen-activated protein kinase kinase 5 (Homo sapiens) (UniProt Q13163); conditions: Compound concentration 100.0 nM
[10] = target: Histamine H1 receptor (Homo sapiens, UniProt P35367); conditions: Compound concentration 10.0 uM
[11] = target: Ribosomal protein S6 kinase alpha-2 (Homo sapiens) (UniProt Q15349); conditions: Compound concentration 100.0 nM
[12] = target: Non-receptor tyrosine-protein kinase TYK2 (Homo sapiens) (UniProt P29597); conditions: Compound concentration 100.0 nM
Sequence of Non-receptor tyrosine-protein kinase TYK2 (Homo sapiens) (P29597 whole entry): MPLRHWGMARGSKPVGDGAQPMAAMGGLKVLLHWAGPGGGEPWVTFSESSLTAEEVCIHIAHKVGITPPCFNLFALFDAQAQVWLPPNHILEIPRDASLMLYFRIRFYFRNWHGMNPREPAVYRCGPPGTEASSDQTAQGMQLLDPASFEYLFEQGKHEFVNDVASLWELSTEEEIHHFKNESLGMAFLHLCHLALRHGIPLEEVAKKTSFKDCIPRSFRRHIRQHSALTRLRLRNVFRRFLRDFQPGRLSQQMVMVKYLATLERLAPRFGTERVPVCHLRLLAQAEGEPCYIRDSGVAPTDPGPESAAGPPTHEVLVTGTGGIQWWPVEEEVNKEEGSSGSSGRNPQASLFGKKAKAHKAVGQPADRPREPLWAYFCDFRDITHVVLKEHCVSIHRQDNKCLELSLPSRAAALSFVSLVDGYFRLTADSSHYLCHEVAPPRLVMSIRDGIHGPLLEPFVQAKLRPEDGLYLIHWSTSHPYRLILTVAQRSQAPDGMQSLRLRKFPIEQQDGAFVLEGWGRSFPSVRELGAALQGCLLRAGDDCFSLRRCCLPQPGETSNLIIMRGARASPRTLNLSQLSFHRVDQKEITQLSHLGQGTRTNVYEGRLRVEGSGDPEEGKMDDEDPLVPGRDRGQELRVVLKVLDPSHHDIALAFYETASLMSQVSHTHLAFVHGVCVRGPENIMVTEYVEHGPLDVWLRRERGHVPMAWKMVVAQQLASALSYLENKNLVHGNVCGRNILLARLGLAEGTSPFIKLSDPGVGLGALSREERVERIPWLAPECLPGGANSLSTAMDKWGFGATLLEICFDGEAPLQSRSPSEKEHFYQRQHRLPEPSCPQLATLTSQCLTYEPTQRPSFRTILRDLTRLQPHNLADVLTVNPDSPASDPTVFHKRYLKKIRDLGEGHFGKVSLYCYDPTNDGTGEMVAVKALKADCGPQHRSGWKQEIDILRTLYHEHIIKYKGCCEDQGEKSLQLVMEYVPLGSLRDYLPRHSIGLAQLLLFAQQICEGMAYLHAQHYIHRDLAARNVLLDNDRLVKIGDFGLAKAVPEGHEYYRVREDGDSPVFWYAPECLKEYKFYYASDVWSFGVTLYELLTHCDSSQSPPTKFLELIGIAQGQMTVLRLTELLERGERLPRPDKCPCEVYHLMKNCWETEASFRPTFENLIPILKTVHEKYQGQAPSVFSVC

[13] = target: Serine/threonine-protein kinase MRCK beta (Homo sapiens) (UniProt Q9Y5S2); conditions: Compound concentration 100.0 nM
[14] = target: Alpha-2A adrenergic receptor (Homo sapiens) (UniProt P08913); conditions: Compound concentration 10.0 uM
[15] = test system: Hepatocyte growth factor receptor (Homo sapiens), P08581 [Y1235D]; conditions: Compound concentration 100.0 nM
[16] = target: Cyclin-dependent kinase 4 (Homo sapiens) (UniProt P11802); conditions: Compound concentration 100.0 nM
Sequence of Cyclin-dependent kinase 4 (Homo sapiens) (P11802 whole entry): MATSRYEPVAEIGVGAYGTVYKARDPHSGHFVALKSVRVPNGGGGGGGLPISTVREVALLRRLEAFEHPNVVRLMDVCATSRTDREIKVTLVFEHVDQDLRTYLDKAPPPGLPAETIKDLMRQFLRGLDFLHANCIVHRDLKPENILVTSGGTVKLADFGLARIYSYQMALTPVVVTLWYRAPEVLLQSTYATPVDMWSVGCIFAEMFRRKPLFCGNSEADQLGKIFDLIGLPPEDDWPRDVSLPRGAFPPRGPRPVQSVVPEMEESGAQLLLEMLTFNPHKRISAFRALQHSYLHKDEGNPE

[17] = target: Cyclin-dependent kinase-like 5 (Homo sapiens) (UniProt O76039); conditions: Compound concentration 100.0 nM
[18] = test system: Mast/stem cell growth factor receptor Kit (Homo sapiens), P10721 [V559D]; conditions: Compound concentration 100.0 nM
Sequence of Mast/stem cell growth factor receptor Kit (Homo sapiens), P10721 [V559D] (P10721 whole entry V559D): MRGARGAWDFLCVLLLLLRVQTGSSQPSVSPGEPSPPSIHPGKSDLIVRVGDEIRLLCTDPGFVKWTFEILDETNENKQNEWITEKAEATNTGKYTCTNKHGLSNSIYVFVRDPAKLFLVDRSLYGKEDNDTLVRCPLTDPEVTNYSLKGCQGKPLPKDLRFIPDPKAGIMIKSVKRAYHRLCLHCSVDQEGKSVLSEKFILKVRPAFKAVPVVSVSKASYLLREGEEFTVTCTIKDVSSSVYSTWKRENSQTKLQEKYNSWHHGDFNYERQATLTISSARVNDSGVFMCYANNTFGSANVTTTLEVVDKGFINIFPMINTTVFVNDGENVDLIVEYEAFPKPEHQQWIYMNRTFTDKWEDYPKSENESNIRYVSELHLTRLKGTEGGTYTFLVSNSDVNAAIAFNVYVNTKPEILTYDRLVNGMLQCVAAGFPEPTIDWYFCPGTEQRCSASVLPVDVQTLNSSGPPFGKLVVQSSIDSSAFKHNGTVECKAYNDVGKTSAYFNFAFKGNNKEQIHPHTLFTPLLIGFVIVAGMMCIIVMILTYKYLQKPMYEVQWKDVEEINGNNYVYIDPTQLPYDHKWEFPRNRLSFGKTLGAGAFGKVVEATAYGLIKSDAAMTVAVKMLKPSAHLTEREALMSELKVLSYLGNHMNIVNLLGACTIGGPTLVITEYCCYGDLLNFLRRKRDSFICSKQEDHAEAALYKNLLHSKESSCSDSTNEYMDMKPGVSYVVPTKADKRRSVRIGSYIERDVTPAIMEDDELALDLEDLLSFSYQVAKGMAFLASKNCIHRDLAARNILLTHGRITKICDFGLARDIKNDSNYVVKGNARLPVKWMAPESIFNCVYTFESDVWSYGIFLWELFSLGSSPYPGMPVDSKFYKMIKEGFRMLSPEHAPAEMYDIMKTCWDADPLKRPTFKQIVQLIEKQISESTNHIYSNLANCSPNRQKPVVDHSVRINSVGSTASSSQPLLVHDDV

[19] = target: Serine/threonine-protein kinase mTOR (Homo sapiens) (UniProt P42345); conditions: Compound concentration 100.0 nM
[20] = target: Wee1-like protein kinase 2 (Homo sapiens) (UniProt P0C1S8); conditions: Compound concentration 100.0 nM
Sequence of Wee1-like protein kinase 2 (Homo sapiens) (P0C1S8 whole entry, looked up): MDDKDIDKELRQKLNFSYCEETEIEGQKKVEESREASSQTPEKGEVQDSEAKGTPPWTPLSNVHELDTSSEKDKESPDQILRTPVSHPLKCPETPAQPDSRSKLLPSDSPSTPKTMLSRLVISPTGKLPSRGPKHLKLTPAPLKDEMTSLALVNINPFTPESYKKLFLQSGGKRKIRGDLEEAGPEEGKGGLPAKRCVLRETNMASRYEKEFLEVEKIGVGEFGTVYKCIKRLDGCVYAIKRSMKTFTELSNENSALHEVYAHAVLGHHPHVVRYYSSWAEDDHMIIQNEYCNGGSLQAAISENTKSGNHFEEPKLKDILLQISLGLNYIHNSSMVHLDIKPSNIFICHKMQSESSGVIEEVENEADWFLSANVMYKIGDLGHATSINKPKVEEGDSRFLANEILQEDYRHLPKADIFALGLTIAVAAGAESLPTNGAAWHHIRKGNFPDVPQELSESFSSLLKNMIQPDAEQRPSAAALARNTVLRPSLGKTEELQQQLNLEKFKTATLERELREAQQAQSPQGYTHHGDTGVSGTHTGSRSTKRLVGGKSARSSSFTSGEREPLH

[21] = target: Cyclin-dependent kinase 4 (Homo sapiens) (UniProt P11802); conditions: Compound concentration 100.0 nM; remark: listed apart in the source
[22] = target: Testis-specific serine/threonine-protein kinase 1 (Homo sapiens) (UniProt Q9BXA7); conditions: Compound concentration 100.0 nM
[23] = target: Sodium-dependent serotonin transporter (Homo sapiens) (UniProt P31645); conditions: Compound concentration 10.0 uM
[24] = target: Serine/threonine-protein kinase SIK3 (Homo sapiens) (UniProt Q9Y2K2); conditions: Compound concentration 100.0 nM
[25] = target: Mitogen-activated protein kinase 8 (Homo sapiens) (UniProt P45983); conditions: Compound concentration 100.0 nM
[26] = target: Homeodomain-interacting protein kinase 4 (Homo sapiens) (UniProt Q8NE63); conditions: Compound concentration 100.0 nM
[27] = target: Bone morphogenetic protein receptor type-2 (Homo sapiens) (UniProt Q13873); conditions: Compound concentration 100.0 nM
[28] = target: Cyclin-dependent kinase 2 homolog (Plasmodium falciparum (isolate 3D7)) (UniProt P61075); conditions: Compound concentration 100.0 nM
Sequence of Cyclin-dependent kinase 2 homolog (Plasmodium falciparum (isolate 3D7)) (P61075 whole entry): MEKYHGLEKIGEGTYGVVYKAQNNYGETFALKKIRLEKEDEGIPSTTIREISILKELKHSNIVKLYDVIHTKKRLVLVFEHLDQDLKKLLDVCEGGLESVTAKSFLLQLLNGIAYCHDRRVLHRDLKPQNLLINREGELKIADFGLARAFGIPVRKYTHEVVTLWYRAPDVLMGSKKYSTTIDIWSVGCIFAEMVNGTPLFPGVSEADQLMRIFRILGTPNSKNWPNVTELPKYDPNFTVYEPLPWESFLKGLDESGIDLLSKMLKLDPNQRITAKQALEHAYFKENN

[29] = target: Receptor tyrosine-protein kinase erbB-2 (Homo sapiens) (UniProt P04626); conditions: Compound concentration 100.0 nM
[30] = target: Fibroblast growth factor receptor 2 (Homo sapiens) (UniProt P21802); conditions: Compound concentration 100.0 nM
[31] = target: Mitogen-activated protein kinase kinase kinase 11 (Homo sapiens) (UniProt Q16584); conditions: Compound concentration 100.0 nM
[32] = target: Serine/threonine-protein kinase Nek11 (Homo sapiens) (UniProt Q8NG66); conditions: Compound concentration 100.0 nM
[33] = target: Aurora kinase B (Homo sapiens) (UniProt Q96GD4); conditions: Compound concentration 100.0 nM
[34] = target: Serine/threonine-protein kinase Nek4 (Homo sapiens) (UniProt P51957); conditions: Compound concentration 100.0 nM
[35] = target: Vascular endothelial growth factor receptor 1 (Homo sapiens) (UniProt P17948); conditions: Compound concentration 100.0 nM
[36] = target: Receptor-interacting serine/threonine-protein kinase 1 (Homo sapiens) (UniProt Q13546); conditions: Compound concentration 100.0 nM
[37] = target: Serine/threonine-protein kinase 35 (Homo sapiens) (UniProt Q8TDR2); conditions: Compound concentration 100.0 nM
Sequence of Serine/threonine-protein kinase 35 (Homo sapiens) (Q8TDR2 whole entry): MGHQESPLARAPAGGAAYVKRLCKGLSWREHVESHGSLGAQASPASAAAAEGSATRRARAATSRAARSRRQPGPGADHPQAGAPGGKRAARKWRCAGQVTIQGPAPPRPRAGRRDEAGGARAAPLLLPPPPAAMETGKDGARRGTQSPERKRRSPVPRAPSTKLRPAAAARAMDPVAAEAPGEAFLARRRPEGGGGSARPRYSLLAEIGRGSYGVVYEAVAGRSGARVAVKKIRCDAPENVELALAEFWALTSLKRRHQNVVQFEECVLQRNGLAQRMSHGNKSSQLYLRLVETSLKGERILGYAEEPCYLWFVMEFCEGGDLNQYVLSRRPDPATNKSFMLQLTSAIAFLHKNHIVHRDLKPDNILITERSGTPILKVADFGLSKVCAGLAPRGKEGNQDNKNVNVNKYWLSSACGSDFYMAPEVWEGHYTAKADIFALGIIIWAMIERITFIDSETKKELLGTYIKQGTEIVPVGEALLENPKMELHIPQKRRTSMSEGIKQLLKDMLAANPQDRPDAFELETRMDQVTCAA

[38] = test system: Tyrosine-protein kinase ABL1 (Homo sapiens), P00519 [T315I]; conditions: Compound concentration 100.0 nM
[39] = target: Tyrosine-protein kinase JAK1 (Homo sapiens) (UniProt P23458); conditions: Compound concentration 100.0 nM
[40] = target: Sigma non-opioid intracellular receptor 1 (Homo sapiens) (UniProt Q99720); conditions: Compound concentration 10.0 uM
[41] = target: Mitogen-activated protein kinase kinase kinase 7 (Homo sapiens) (UniProt O43318); conditions: Compound concentration 100.0 nM
Sequence of Mitogen-activated protein kinase kinase kinase 7 (Homo sapiens) (O43318 whole entry): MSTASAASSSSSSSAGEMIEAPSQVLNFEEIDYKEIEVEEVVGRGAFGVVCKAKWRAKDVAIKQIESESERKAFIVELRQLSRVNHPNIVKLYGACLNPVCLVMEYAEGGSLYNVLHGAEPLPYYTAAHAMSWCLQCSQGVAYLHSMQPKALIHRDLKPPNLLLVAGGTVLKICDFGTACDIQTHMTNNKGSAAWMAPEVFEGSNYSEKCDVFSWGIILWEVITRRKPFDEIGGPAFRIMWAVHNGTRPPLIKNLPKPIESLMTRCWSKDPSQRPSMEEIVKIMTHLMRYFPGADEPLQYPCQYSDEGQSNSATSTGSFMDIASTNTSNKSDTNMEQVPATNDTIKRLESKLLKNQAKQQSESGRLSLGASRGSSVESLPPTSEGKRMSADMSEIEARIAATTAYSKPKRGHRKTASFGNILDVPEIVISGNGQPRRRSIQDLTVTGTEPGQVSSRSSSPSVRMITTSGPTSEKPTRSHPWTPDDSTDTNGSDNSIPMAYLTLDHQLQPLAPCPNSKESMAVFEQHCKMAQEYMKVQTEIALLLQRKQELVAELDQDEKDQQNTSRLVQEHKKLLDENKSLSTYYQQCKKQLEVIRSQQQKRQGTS

[42] = target: Vascular endothelial growth factor receptor 3 (Homo sapiens) (UniProt P35916); conditions: Compound concentration 100.0 nM
[43] = target: Mitotic checkpoint serine/threonine-protein kinase BUB1 (Homo sapiens) (UniProt O43683); conditions: Compound concentration 100.0 nM
[44] = target: NT-3 growth factor receptor (Homo sapiens) (UniProt Q16288); conditions: Compound concentration 100.0 nM
[45] = target: Serine/threonine-protein kinase PLK3 (Homo sapiens) (UniProt Q9H4B4); conditions: Compound concentration 100.0 nM

Work on `Nc1c(C(=O)NCc2ccc(C(=O)NCCCC3CCCCC3)cc2)cnn1-c1ccccc1` [SR-318] yielded a residual activity [1] of 100%, a residual activity [2] of 100% and a residual activity [3] of 44%. For the same compound, the residual activity [4] was 100%, the residual activity [5] was 79% and the residual activity [6] was 100%. It also gave a residual activity [7] of 100%, a residual activity [8] of 100% and a residual activity [9] of 100%. For the same compound, the inhibition [10] was 14.7%, the residual activity [11] was 100% and the residual activity [12] was 100%. It also gave a residual activity [13] of 100%, an inhibition [14] of 4.08% and a residual activity [15] of 94%. For the same compound, the residual activity [16] was 100%, the residual activity [17] was 100% and the residual activity [18] was 45%. The residual activity [19] was 100%, the residual activity [20] was 100% and the residual activity [21] was 100%. The residual activity [22] was 81%, the inhibition [23] was 7.75% and the residual activity [24] was 94%. It also gave a residual activity [25] of 100%, a residual activity [26] of 100% and a residual activity [27] of 100%. It also gave a residual activity [28] of 100%, a residual activity [29] of 100% and a residual activity [30] of 100%. It also gave a residual activity [31] of 76%, a residual activity [32] of 94% and a residual activity [33] of 81%. For the same compound, the residual activity [34] was 100%, the residual activity [35] was 100% and the residual activity [36] was 100%. The residual activity [37] was 100%, the residual activity [38] was 100% and the residual activity [39] was 100%. For the same compound, the inhibition [40] was 45.1%, the residual activity [41] was 100% and the residual activity [42] was 100%. It also gave a residual activity [43] of 86%, a residual activity [44] of 97% and a residual activity [45] of 100%.
`O=C(NCCCC1CCCCC1)c1ccc(CNC(=O)c2cnn(-c3ccccc3)c2C(F)(F)F)cc1` [SR-321] was tested, and the residual activity [1] was 100%, the residual activity [2] was 100% and the residual activity [3] was 20%. It also gave a residual activity [4] of 96%, a residual activity [5] of 100% and a residual activity [6] of 92%. For the same compound, the residual activity [7] was 100%, the residual activity [8] was 100% and the residual activity [9] was 73%. The inhibition [10] was 63%, the residual activity [11] was 100% and the residual activity [12] was 100%. The residual activity [13] was 100%, the inhibition [14] was -2.46% and the residual activity [15] was 100%. For the same compound, the residual activity [16] was 96%, the residual activity [17] was 100% and the residual activity [18] was 100%. The residual activity [19] was 100%, the residual activity [20] was 100% and the residual activity [21] was 100%. It also gave a residual activity [22] of 94%, an inhibition [23] of 0.18% and a residual activity [24] of 76%. For the same compound, the residual activity [25] was 99%, the residual activity [26] was 100% and the residual activity [27] was 100%. For the same compound, the residual activity [28] was 100%, the residual activity [29] was 100% and the residual activity [30] was 100%. It also gave a residual activity [31] of 100%, a residual activity [32] of 100% and a residual activity [33] of 95%. The residual activity [34] was 100%, the residual activity [35] was 100% and the residual activity [36] was 89%. The residual activity [37] was 100%, the residual activity [38] was 80% and the residual activity [39] was 89%. The inhibition [40] was 20.1%, the residual activity [41] was 89% and the residual activity [42] was 100%. It also gave a residual activity [43] of 100%, a residual activity [44] of 100% and a residual activity [45] of 100%.
